The values below come from US5580854A, “Substrate-related peptidyl-aldehyde inhibitors of the proteolytic activity of the multicatalytic proteinase complex” (Mount Sinai School of Medicine of The City University of …, priority 1994, dated 1996).

Like-named read-outs stand apart in the source and are kept apart here. Peptide text beside a SMILES is read from it. * marks the point of attachment. Cbz = O=C(OCc1ccccc1)*

Assay type in all cases: biochemical, bovine
The target in experiment [1] is T1, multicatalytic proteinase complex (MPC) (Bos taurus, UniProt Q2TBP0+Q32KL2+Q3MHN0).
T1 construct: The MPC was isolated from frozen bovine pituitaries; tissue PelFreeze, Inc. (Rogers, Ark.) (supplier of the tissue; the enzyme was purified in house); host or cells: bovine pituitaries
The experiment in a line: Histone H3 degradation by the MPC, HPLC. The following applies: 50 μM inhibitor. The protocol:
(§1) The MPC was isolated from frozen bovine pituitaries, obtained from PelFreeze, Inc. (Rogers, Ark.) essentially as described in Orlowski & Michaud, Biochemistry 28:9270-9277 (1989), incorporated herein by reference.
In vitro protein degrading activity of the MPC, and the effects of the various inhibitors of the present invention on such activity, was determined using β-casein and histone H3 as proteolytic substrates. For determining protein degrading activity in the presence and absence of inhibitors, incubation mixtures contained Tris-HCl buffer (0.05M, pH 8.0), β-casein or histone H3, 20 mM Mg^2+ where indicated, and inhibitor dissolved in dimethylsulfoxide, where indicated. In control samples, the inhibitor was replaced by an equal volume of dimethylsulfoxide alone.
In order to measure proteolysis by the MPC, and its inhibition by the inhibitors of the invention, aliquots of the reaction mixtures were removed after various incubation times and subjected to HPLC on a Deltapak column (C4; 5 μm; 300 A; 3.9×150 mm Waters). Elution of histone H3 was carried out with a linear gradient over 30 min. established between 30 and 50% acetonitrile (v/v) in water containing 0.1% trifluoroacetic acid (v/v) at a flow rate of 1 ml/min. Elution of β-casein was carried with a linear gradient established between 10 and 45% acetonitrile (v/v) in water containing 0.1% trifluoroacetic acid (v/v). The rate of protein degradation was determined by measuring the decrease of the peak height of the protein compared with controls in which the enzyme was omitted. Alternatively degradation of the proteins was determined by integrating the area under the peak of the protein at time zero and determining the decrease of the area after incubation with the enzyme.
Histone H3 used for testing the proteolytic activity of MPC was purified from a crude histone VIII S fraction (obtained from Sigma Chemical Co. St. Louis, Mo.) by HPLC. The material was applied to a Delta Pak C4-300A semipreparative column (15 μm; 7.8 mm×300 mm) equilibrated with 30% acetonitrile (v/v) in water solution, containing 0.1% trifluoroacetic acid (v/v). Elution was carried out at a flow rate of 4 ml/min with a linear, 50 min. gradient established between 30% and 50% acetonitrile (v/v) in water, each containing 0.1% trifluoroacetic acetic acid (v/v). The main protein peak was collected and the solvent was removed under reduced pressure. The protein was dissolved in water at a concentration of 1.85 mg/ml and used for experiments. The purified histone H3 was subjected to HPLC on an analytical Deltapak column (C4; 5 μm; 300 A; 3.9×150 mm; Waters) with a linear gradient established between 30 and 50% acetonitrile (v/v) in water, containing 0.1% trifluoroacetic acid (v/v). […]

The target of experiment [2] is T2, ChT-L component of the multicatalytic proteinase complex (MPC) (Bos taurus, UniProt Q32KL2).
T2 construct: The MPC was isolated from frozen bovine pituitaries; tissue PelFreeze, Inc. (Rogers, Ark.) (supplier of the tissue; the enzyme was purified in house); host or cells: bovine pituitaries
The experiment in a line: ChT-L activity of the MPC with Cbz-Gly-Gly-Leu-pNA; Ki by Dixon plots.
Source text: as §1
(§2) The substrates Cbz-Gly-Gly-Leu-pNA, Cbz-D-Ala-Leu-Arg-2NA and Cbz-Leu-Leu-Glu-2NA were used to determine the activities of the ChT-L, T-L and PGPH components of the MPC, respectively, as previously described by Wilk and Orlowski, J. Neurochem. 35:1172-1182 (1980) and J. Neurochem 40:842-849 (1983), where pNA is p-nitroaniline and 2NA is 2-naphthylamide.The rate of release of the chromogenic group (aromatic amine) was measured after diazotization (Goldbarg & Rutenburg, Cancer 11:283-291 (1958) Bratton & Marshall, J. Biol. Chem. 128:537-550 (1939)).
(§3) Reaction mixtures contained 0.4 to 0.8 mM substrate, Tris-HCl buffer (0.05M; pH 8.0) and enzyme (1 to 3 μg) in a final volume of 0.25 ml. Incubations were at 37° C. The reactions were stopped by addition of an equal volume of 10% trichloroacetic acid and diazotization was then carried out.
Inhibition constant (K1) values for the inhibitors of the present invention towards the various proteolytic activities of the MPC were determined by the method of Dixon, Biochem. J. 55:170-171 (1953). Plots of 1/v vs [I] were made at three (3) different synthetic substrate concentrations and six (6) different inhibitor concentrations [I]. Linear regression analysis gave generally correlation coefficients better than 0.99.
Inhibition was tested with and without preincubation of the MPC with the inhibitors of the invention. No increase in inhibition was observed after preincubation of the enzyme with the inhibitor for up to 30 min, indicating absence of slow binding phenomena and a rapid equilibration between enzyme and inhibitor.
Table II provides a summary of the Ki measurements for the various peptidyl aldehydes of the invention synthesized in accordance with Examples 2 and 3.

Experiment [3] has as its target T3, PGPH component of the multicatalytic proteinase complex (MPC) (Bos taurus, UniProt Q3MHN0).
T3 construct: The MPC was isolated from frozen bovine pituitaries; tissue PelFreeze, Inc. (Rogers, Ark.) (supplier of the tissue; the enzyme was purified in house); host or cells: bovine pituitaries
The experiment in a line: PGPH activity of the MPC with Cbz-Leu-Leu-Glu-2NA; IC50. The conditions noted are these: substrate concentration of 0.64 mM; absence of SDS; read-out: IC50, PGPH activity.
Source text: as §1, §2, §3
Due to the sigmoidal relationship between reaction rate and substrate concentration for the PGPH activity, only IC50 values (inhibitor concentration giving 50% inhibition) at a substrate concentration of 0.64 mM were determined. […] Some inhibition of the ChT-L activity was also observed, although the Ki for this component was almost 20 times higher than that for the other three activities. […] Indeed, at the concentrations used, each of the inhibitors produced some activation of the T-L activity (data not shown).

One may read the inhibition as the relative decrease from the control value, in per cent. For orientation: Ki means the dissociation constant of the complex between target and ligand, obtained from inhibition or displacement. One may read the IC50 as the concentration at which inhibition is half-maximal. Take `CC(C)C[C@@H](C=O)NC(=O)[C@H](Cc1ccccc1)NC(=O)[C@@H]1CCCN1C(=O)CNC(=O)OCc1ccccc1` [Cbz-Gly-Pro-Phe-Leu-CHO] (Cbz-GPFL-aldehyde): the inhibition at 50 µM in experiment [1] (all histone H3 concentrations, read-out: inhibition of the rate of histone H3 degradation) is approximately 80%; in experiment [1] (histone H3 185 μg/ml, MPC 2.5 μg, read-out: Inhibition, histone H3 degradation), 77%; in experiment [1] (histone H3 370 μg/ml, MPC 2.5 μg, read-out: Inhibition, histone H3 degradation), 76%; in experiment [1] (histone H3 740 μg/ml, MPC 2.5 μg, read-out: Inhibition, histone H3 degradation) it was 86%. Further, the “Ki for ChT-L activity, times higher than that for the other three activities” value in experiment [2] (ChT-L vs BrAAP, SNAAP, PGPH) is given as approximately 20 times. For the same compound, the Ki in experiment [2] (substrate Cbz-Gly-Gly-Leu-pNA (0.1 to 0.4 MM), mean of 3 to 6 experiments ± SEM) came to 40.5 ± 8.8 µM. The IC50 in experiment [3] was 3.1 µM.
